From PubChem BioAssay (NCI)
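Protocol summary: plate cells (96-well), add compound at 5 concentrations, incubate 48 h, interpolate endpoints linearly. GI50 marks 50% less growth. TGI is the concentration that stops growth completely.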

Legend:
Test in all cases: inhibition of tumour cell growth, NCI panel, 48 h
HOP-62 NSCLC = tested on: HOP-62 NSCLC
SK-OV-3 ovarian = tested on: SK-OV-3 ovarian
EKVX NSCLC = tested on: EKVX NSCLC
OVCAR-3 ovarian = tested on: OVCAR-3 ovarian
A549 NSCLC = tested on: A549 NSCLC
SF-268 CNS = tested on: SF-268 CNS
MDA-MB-435 = tested on: MDA-MB-435
CAKI-1 renal = tested on: CAKI-1 renal
SF-295 CNS = tested on: SF-295 CNS
HCC-2998 colon = tested on: HCC-2998 colon

Nc1nc2ccccc2c2[nH]c3ccccc3c12
GI50 (HOP-62 NSCLC): 1.13 µM | TGI (HOP-62 NSCLC): 2.44 µM | GI50 (SK-OV-3 ovarian): 4.91 µM | TGI (SK-OV-3 ovarian): 18.9 µM | GI50 (EKVX NSCLC): 3.19 µM | TGI (EKVX NSCLC): 11.6 µM | GI50 (OVCAR-3 ovarian): 1.42 µM | TGI (OVCAR-3 ovarian): 4.37 µM | GI50 (A549 NSCLC): 1.09 µM | TGI (A549 NSCLC): 2.37 µM | GI50 (SF-268 CNS): 1.97 µM | TGI (SF-268 CNS): 7.23 µM | GI50 (MDA-MB-435): 0.938 µM | TGI (MDA-MB-435): 3.16 µM

Cc1cc(Cl)ccc1NC(=O)C1C(=O)C(=O)N(c2ccc(Cl)cc2C)C1=O (centres undefined)
TGI (HOP-62 NSCLC): > 100 µM | TGI (SK-OV-3 ovarian): > 100 µM | TGI (EKVX NSCLC): > 100 µM | TGI (OVCAR-3 ovarian): > 100 µM | TGI (CAKI-1 renal): > 100 µM | TGI (A549 NSCLC): > 100 µM | TGI (SF-295 CNS): > 100 µM | TGI (HCC-2998 colon): > 100 µM | TGI (SF-268 CNS): > 100 µM

COC(=O)c1ccc(CS(=O)(=O)c2ccccc2)cc1
TGI (HOP-62 NSCLC): > 100 µM | TGI (SK-OV-3 ovarian): > 100 µM | TGI (EKVX NSCLC): > 100 µM | TGI (OVCAR-3 ovarian): > 100 µM | TGI (CAKI-1 renal): > 100 µM | TGI (A549 NSCLC): > 100 µM | TGI (SF-295 CNS): > 100 µM | TGI (HCC-2998 colon): > 100 µM | TGI (SF-268 CNS): > 100 µM

COc1ccc2c(c1)O/C(=C\c1ccc([N+](=O)[O-])o1)C2=O
GI50 (HOP-62 NSCLC): 2.05 µM | TGI (HOP-62 NSCLC): 6.56 µM | GI50 (SK-OV-3 ovarian): 4.75 µM | TGI (SK-OV-3 ovarian): 59 µM | GI50 (OVCAR-3 ovarian): 1.19 µM | TGI (OVCAR-3 ovarian): 2.53 µM | GI50 (CAKI-1 renal): 0.452 µM | TGI (CAKI-1 renal): 2.12 µM | GI50 (A549 NSCLC): 2.43 µM | TGI (A549 NSCLC): 8.04 µM | GI50 (SF-295 CNS): 2.47 µM | TGI (SF-295 CNS): 11.6 µM | GI50 (HCC-2998 colon): 1.81 µM | TGI (HCC-2998 colon): 3.64 µM | GI50 (SF-268 CNS): 2 µM | TGI (SF-268 CNS): 16.8 µM | GI50 (MDA-MB-435): 1.61 µM | TGI (MDA-MB-435): 3.49 µM

COc1cccc(-c2cc(C(=O)Nc3ccc(Cl)cc3)nc(N)n2)c1
TGI (HOP-62 NSCLC): > 100 µM | TGI (SK-OV-3 ovarian): > 100 µM | TGI (EKVX NSCLC): > 100 µM | TGI (OVCAR-3 ovarian): > 100 µM | TGI (CAKI-1 renal): > 100 µM | TGI (A549 NSCLC): > 100 µM | TGI (SF-295 CNS): > 100 µM | TGI (HCC-2998 colon): > 100 µM | TGI (SF-268 CNS): > 100 µM

O=S1(=O)OCc2ccccc21
TGI (HOP-62 NSCLC): 42.3 µM | TGI (SK-OV-3 ovarian): > 100 µM | TGI (EKVX NSCLC): > 100 µM | TGI (OVCAR-3 ovarian): > 100 µM | TGI (A549 NSCLC): > 100 µM | TGI (SF-295 CNS): > 100 µM | TGI (HCC-2998 colon): > 100 µM | TGI (SF-268 CNS): > 100 µM | TGI (MDA-MB-435): > 100 µM

COc1ccc(-c2cnc(SCC(=O)c3c(C)n(C)n(-c4ccccc4)c3=O)n2-c2ccc(OC)cc2)cc1
GI50 (HOP-62 NSCLC): 28.9 µM | TGI (HOP-62 NSCLC): > 50 µM | GI50 (EKVX NSCLC): 29.7 µM | TGI (EKVX NSCLC): > 50 µM | GI50 (OVCAR-3 ovarian): > 50 µM | TGI (OVCAR-3 ovarian): > 50 µM | GI50 (CAKI-1 renal): > 50 µM | TGI (CAKI-1 renal): > 50 µM | GI50 (A549 NSCLC): > 50 µM | TGI (A549 NSCLC): > 50 µM | GI50 (SF-295 CNS): > 50 µM | TGI (SF-295 CNS): > 50 µM | GI50 (HCC-2998 colon): 44.9 µM | TGI (HCC-2998 colon): > 50 µM | GI50 (SF-268 CNS): > 50 µM | TGI (SF-268 CNS): > 50 µM | GI50 (MDA-MB-435): > 50 µM | TGI (MDA-MB-435): > 50 µM

COc1ccccc1CN=C1NC(=O)/C(=C/c2ccc3ncccc3c2)S1
GI50 (HOP-62 NSCLC): 7.64 µM | TGI (HOP-62 NSCLC): > 20.2 µM | GI50 (SK-OV-3 ovarian): 6.08 µM | TGI (SK-OV-3 ovarian): > 19.2 µM | GI50 (OVCAR-3 ovarian): 7.13 µM | TGI (OVCAR-3 ovarian): 24.9 µM | GI50 (CAKI-1 renal): 6.84 µM | TGI (CAKI-1 renal): > 25 µM | GI50 (A549 NSCLC): 6.93 µM | TGI (A549 NSCLC): > 25 µM | GI50 (SF-295 CNS): 5.7 µM | TGI (SF-295 CNS): > 21 µM | GI50 (HCC-2998 colon): 17.5 µM | TGI (HCC-2998 colon): > 25 µM | GI50 (SF-268 CNS): 7.89 µM | TGI (SF-268 CNS): > 25 µM | GI50 (MDA-MB-435): 6.02 µM | TGI (MDA-MB-435): > 21.3 µM
